Holding throughout (assay): E. coli hemG growth inhibition by herbicide, AtPPO1 variant
What all share (assay type): cell-based
What all share (conditions): read-out: percentage growth inhibition

In one test the target is T1, AtPPO1 V198W (Arabidopsis thaliana, UniProt P55826, V198W).
T1 construct: expressed in transfected cells; host or cells: E. coli BL21(DE3) hemG (hemG replaced by CmR), pET24a plasmid
T1 sequence (P55826 35-537 V198W): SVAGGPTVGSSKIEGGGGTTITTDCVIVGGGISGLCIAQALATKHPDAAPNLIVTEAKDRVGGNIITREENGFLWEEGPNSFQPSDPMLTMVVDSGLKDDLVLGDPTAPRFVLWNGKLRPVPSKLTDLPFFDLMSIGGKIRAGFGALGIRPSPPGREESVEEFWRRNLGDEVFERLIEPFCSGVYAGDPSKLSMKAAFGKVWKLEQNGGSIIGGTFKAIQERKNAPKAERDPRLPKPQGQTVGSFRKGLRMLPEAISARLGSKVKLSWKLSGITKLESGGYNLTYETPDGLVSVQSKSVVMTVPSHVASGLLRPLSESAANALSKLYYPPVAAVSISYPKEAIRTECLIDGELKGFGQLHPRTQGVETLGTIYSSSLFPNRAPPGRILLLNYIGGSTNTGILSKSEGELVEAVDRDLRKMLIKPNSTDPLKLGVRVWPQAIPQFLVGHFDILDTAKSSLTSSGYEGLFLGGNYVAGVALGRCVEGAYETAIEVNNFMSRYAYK
The source says: (§1) A pET24a plasmid containing a DNA sequence encoding a variant of PPO1 derived from Arabidopsis thaliana (AtPPO1), codon-optimised for expression in E. coli and under control of a T7 promoter, was synthesised by Twist Bioscience (SEQ ID NO:3). This plasmid was used as the basis of a Site Saturation Variant Library (SSVL) that substituted the codons at 352 amino acid positions for codons that encoded one of the other 19 amino acids, or removed the codon altogether, resulting in a translation product with a deletion at that position.
(§2) The SSVL was batch-transformed by electroporation into an E. coli BL21(DE3) hemG strain with the hemG gene replaced by CmR conferring resistance to chloramphenicol and spread onto LA supplemented with 50 μg/mL kanamycin, 25 μg/mL chloramphenicol and 20 μg/mL hematin. Each batch consisted of all the plasmids that contained variants at two sites.
(§3) Colonies from batch transformations were inoculated into 500 μL of Terrific broth supplemented with 50 μg/mL kanamycin, 25 μg/mL chloramphenicol and 20 μg/mL hematin in 96-deepwell blocks. Cultures were grown for 24 hours at 37° C. with shaking at 250 rpm.
(§4) Overnight cultures were centrifuged and the cell pellets resuspended with 500 μL of Terrific broth. The resuspended cultures were used at a ratio of 1:100 to inoculate a fresh 96-deepwell block containing 500 μL of Terrific broth supplemented with 0.1 mM IPTG, 50 μg/mL kanamycin, 25 μg/mL chloramphenicol and 6.25 ppm of herbicide […] or E or 0.78 ppm herbicide B or DMSO. Assay cultures were grown for 24 hours at 37° C. with shaking at 250 rpm with the OD600 being measured at 24 hours post inoculation. Strains that grew in both DMSO and herbicide were determined to be herbicide tolerant with the percentage of growth inhibition being calculated as below: […]

Another test has as its target T2, AtPPO1 Y361T (Arabidopsis thaliana, UniProt P55826, Y361T).
T2 construct: expressed in transfected cells; host or cells: E. coli BL21(DE3) hemG (pET24a, T7 promoter)
T2 sequence (P55826 35-537 Y361T): T1 sequence (P55826 35-537 V198W) with W164V, Y327T
Source text: as §1, §2, §3, §4

Another test deals with T3, AtPPO1 K270M (Arabidopsis thaliana, UniProt P55826, K270M).
T3 construct: expressed in transfected cells; host or cells: E. coli BL21(DE3) hemG, pET24a plasmid
T3 sequence (P55826 35-537 K270M): T1 sequence (P55826 35-537 V198W) with W164V, K236M
Source text: as §1, §2, §3, §4

Another test deals with T4, AtPPO1 P413G (Arabidopsis thaliana, UniProt P55826, P413G).
T4 construct: expressed in transfected cells; host or cells: E. coli BL21(DE3) hemG (pET24a, T7 promoter)
T4 sequence (P55826 35-537 P413G): T1 sequence (P55826 35-537 V198W) with W164V, P379G
Source text: as §1, §2, §3, §4

Here are results for three compounds from patent US20260297542A1, “HERBICIDE RESISTANT PLANTS” (SYNGENTA CROP PROTECTION AG, priority 2023, published 2026).

Residue numbers refer to the chain shown, from its start.

Take `C#CCN1C(=O)C(F)(F)Oc2cc(F)c(-n3c(=O)n(C)c(=S)n(C)c3=O)cc21` [Herbicide B, trifludimoxazin]: the inhibition at 0.78 ppm on AtPPO1 V198W came to 30%; on AtPPO1 Y361T, 37%; at AtPPO1 K270M it was 28%; at AtPPO1 P413G, 16%.
Consider `CCOC(=O)[C@]1(C)CC(c2cc(-n3c(=O)n(C)c(=S)n(C)c3=O)c(F)cc2Cl)=NO1` [Herbicide D, ethyl (5S)-3-[2-chloro-5-(3,5-dimethyl-2,6-dioxo-4-thioxo-1,3,5-triazinan-1-yl)-4-fluoro-phenyl]-5-methyl-4H-isoxazole-5-carboxylate], for which the inhibition at 6.25 ppm on AtPPO1 V198W came out at 47%; at AtPPO1 Y361T, 44%; at AtPPO1 K270M, 23%; at AtPPO1 P413G, 32%.
As to `CC(C)N(C)S(=O)(=O)NC(=O)c1cc(-n2c(=O)cc(C(F)(F)F)n(C)c2=O)c(F)cc1Cl` [Herbicide E, saflufenacil], the inhibition at 6.25 ppm at AtPPO1 V198W was found to be 51%; at AtPPO1 Y361T, 37%; on AtPPO1 K270M it was 29%; at AtPPO1 P413G it was 59%.

What is called inhibition is how much of the control response was suppressed.
